Data reported in BindingDB's records for doi:10.1038/nchembio.2007.34 (GlaxoSmithKline, 2007).

Target: T1, Kinesin-like protein KIF11 (Homo sapiens, UniProt P52732)
T1 sequence (P52732 whole entry): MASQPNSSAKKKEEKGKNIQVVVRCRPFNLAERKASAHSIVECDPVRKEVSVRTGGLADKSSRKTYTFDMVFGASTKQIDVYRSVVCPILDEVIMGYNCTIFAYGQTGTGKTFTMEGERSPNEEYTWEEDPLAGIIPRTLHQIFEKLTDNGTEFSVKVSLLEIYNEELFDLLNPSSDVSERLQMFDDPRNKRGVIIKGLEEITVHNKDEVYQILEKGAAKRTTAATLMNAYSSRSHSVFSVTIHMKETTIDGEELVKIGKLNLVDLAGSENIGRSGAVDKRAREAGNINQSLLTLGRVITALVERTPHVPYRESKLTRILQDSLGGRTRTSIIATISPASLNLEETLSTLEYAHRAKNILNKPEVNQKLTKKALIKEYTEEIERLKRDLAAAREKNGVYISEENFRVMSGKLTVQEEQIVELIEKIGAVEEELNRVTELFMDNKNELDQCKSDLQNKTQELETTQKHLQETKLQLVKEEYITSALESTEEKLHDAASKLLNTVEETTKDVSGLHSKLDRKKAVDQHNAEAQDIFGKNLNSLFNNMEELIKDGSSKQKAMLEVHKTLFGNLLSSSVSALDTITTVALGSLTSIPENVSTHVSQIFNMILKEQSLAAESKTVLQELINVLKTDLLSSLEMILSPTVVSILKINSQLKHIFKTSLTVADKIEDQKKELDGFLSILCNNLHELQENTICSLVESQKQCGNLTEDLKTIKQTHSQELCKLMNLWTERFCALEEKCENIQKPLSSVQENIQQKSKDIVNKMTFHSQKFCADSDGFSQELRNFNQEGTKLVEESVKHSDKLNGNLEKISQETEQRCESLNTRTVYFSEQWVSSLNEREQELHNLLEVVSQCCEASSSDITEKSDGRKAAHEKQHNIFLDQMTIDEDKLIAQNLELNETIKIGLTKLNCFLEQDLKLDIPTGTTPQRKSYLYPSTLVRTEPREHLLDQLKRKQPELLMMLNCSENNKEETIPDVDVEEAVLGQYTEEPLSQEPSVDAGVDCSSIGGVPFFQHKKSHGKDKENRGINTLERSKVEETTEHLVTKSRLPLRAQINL
Test: Wild-type HCT116
Settings: pH 6.8
Description: Cell proliferation assay for wild-type cells

O=C1CCc2cc(-c3ccc(C(F)(F)F)cc3)ccc2N1 [6-[4-(Trifluoromethyl)phenyl]-3,4-dihydro-2(1H)-quinolinone]
Ki: 1.7 nM
